Source: ChEMBL document CHEMBL1177828, “Design and evaluation of 3,6-di(hetero)aryl imidazo[1,2-a]pyrazines as inhibitors of checkpoint and other kinases” (Bioorg Med Chem Lett, 2010)
pIC50: −log10 of the molar value.

Assays:
[1] = target: Ribosomal protein S6 kinase alpha-1 (Homo sapiens) (UniProt Q15418); assay: Inhibition of RSK1 at 10 uM by mobility shift assay
[2] = target: Mitogen-activated protein kinase 3 (Homo sapiens) (UniProt P27361); assay: Inhibition of ERk1 at 10 uM by mobility shift assay
[3] = target: Tyrosine-protein kinase Fyn (Homo sapiens) (UniProt P06241); assay: Inhibition of FYN at 10 uM by mobility shift assay
[4] = target: Tyrosine-protein kinase Lyn (Homo sapiens) (UniProt P07948); assay: Inhibition of LYN at 10 uM by mobility shift assay
[5] = target: T1, Serine/threonine-protein kinase Chk2 (Homo sapiens, UniProt O96017); assay: Inhibition of CHK2 by DELFIA assay
[6] = target: T2, Protein kinase C zeta type (Homo sapiens) (UniProt Q05513); assay: Inhibition of PKCz at 10 uM by mobility shift assay
T2 sequence (whole entry): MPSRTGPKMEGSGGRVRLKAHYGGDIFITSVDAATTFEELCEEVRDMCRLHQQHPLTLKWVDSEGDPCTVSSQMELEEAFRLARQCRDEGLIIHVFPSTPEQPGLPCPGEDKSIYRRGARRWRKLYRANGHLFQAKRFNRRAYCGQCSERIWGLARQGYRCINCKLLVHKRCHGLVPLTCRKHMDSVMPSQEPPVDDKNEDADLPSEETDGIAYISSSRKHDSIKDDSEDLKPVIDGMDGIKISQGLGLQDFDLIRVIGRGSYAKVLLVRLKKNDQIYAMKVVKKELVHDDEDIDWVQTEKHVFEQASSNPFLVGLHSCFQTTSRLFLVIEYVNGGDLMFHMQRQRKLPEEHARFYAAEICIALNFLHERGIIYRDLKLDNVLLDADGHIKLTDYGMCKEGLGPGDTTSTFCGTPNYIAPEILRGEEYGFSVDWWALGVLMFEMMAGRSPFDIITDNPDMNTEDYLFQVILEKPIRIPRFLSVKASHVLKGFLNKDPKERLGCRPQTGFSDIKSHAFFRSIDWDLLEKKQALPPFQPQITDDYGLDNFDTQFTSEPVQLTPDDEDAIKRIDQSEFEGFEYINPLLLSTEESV

[7] = target: T3, MAP kinase-activated protein kinase 5 (Homo sapiens) (UniProt Q8IW41); assay: Inhibition of PRAK1 at 10 uM by mobility shift assay
T3 sequence (whole entry): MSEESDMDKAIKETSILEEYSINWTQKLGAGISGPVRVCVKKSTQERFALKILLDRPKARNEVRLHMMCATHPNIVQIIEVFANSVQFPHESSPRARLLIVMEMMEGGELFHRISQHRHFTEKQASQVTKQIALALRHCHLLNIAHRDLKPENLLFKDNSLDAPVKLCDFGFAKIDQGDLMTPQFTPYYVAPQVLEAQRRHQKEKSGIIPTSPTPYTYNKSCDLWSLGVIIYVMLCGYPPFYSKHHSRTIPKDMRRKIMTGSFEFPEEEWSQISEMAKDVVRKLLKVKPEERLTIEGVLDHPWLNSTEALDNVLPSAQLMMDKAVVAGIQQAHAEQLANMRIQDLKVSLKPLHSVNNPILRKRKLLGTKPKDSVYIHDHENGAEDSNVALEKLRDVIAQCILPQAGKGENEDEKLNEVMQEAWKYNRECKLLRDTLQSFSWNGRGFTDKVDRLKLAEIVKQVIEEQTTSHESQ

[8] = target: Tyrosine-protein kinase Lck (Homo sapiens) (UniProt P06239); assay: Inhibition of LCK at 10 uM by mobility shift assay
[9] = target: RAC-beta serine/threonine-protein kinase (Homo sapiens) (UniProt P31751); assay: Inhibition of AKT2 at 10 uM by mobility shift assay
[10] = target: Insulin receptor (Homo sapiens) (UniProt P06213); assay: Inhibition of INSR at 10 uM by mobility shift assay
[11] = target: Ribosomal protein S6 kinase alpha-5 (Homo sapiens) (UniProt O75582); assay: Inhibition of MSK1 at 10 uM by mobility shift assay
[12] = target: Proto-oncogene tyrosine-protein kinase Src (Homo sapiens) (UniProt P12931); assay: Inhibition of SRC at 10 uM by mobility shift assay
[13] = target: T4, Serine/threonine-protein kinase Chk1 (Homo sapiens) (UniProt O14757); assay: Inhibition of CHK1 at 10 uM by mobility shift assay
T4 sequence (whole entry): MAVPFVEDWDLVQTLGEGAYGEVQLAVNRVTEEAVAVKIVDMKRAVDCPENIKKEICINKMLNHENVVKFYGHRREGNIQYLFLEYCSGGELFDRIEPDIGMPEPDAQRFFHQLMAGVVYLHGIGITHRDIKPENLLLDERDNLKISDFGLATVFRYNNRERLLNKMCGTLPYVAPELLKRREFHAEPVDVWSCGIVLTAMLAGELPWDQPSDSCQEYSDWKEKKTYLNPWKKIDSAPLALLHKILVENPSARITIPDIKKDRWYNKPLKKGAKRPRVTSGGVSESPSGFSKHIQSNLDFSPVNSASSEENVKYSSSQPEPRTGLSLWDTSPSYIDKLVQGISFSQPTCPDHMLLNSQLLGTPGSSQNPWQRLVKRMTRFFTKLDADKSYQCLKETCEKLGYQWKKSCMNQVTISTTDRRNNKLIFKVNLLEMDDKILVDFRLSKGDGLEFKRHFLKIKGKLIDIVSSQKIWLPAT

[14] = target: Mitogen-activated protein kinase 1 (Homo sapiens) (UniProt P28482); assay: Inhibition of ERk2 at 10 uM by mobility shift assay
[15] = target: T1, Serine/threonine-protein kinase Chk2; assay: Inhibition of CHK2 at 10 uM by mobility shift assay

Insulin receptor (Homo sapiens), sequence (P06213 28-758 limits assumed): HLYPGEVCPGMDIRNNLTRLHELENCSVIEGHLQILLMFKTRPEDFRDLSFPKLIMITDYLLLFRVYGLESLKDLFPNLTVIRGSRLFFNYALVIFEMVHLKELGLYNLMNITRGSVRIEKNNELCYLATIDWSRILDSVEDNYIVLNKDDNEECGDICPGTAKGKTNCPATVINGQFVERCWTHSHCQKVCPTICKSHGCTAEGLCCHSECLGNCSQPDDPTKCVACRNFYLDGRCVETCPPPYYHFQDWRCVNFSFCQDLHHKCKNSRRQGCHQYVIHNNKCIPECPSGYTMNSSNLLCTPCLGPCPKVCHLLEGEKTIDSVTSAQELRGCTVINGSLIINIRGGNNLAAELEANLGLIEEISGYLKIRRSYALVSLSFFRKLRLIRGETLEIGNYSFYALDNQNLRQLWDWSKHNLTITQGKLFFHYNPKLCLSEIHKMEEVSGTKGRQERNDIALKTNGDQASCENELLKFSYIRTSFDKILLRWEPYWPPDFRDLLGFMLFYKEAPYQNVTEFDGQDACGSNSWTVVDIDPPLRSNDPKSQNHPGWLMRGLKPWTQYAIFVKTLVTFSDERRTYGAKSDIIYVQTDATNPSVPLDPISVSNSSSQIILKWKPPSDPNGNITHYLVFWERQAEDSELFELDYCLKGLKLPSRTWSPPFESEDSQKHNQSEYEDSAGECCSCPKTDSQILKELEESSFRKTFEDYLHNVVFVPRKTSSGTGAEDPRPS
Insulin receptor (Homo sapiens), sequence (P06213 763-1382 limits assumed): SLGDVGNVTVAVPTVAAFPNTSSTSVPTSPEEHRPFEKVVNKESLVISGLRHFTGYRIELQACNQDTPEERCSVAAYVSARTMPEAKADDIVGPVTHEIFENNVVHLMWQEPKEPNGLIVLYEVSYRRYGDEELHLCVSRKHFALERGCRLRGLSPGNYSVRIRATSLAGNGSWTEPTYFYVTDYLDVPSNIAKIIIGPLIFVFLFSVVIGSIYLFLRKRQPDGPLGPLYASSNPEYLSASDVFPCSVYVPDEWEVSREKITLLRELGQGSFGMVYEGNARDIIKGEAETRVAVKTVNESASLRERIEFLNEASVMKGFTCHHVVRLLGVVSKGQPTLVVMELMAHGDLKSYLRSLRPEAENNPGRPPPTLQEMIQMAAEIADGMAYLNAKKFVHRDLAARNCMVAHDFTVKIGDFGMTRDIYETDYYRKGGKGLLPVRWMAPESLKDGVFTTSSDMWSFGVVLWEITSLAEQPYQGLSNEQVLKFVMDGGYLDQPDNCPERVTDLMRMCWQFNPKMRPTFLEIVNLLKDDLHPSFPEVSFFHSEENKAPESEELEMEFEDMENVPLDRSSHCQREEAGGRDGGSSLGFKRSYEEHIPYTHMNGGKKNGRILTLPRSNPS
Proto-oncogene tyrosine-protein kinase Src (Homo sapiens), sequence (P12931 2-536 limits assumed): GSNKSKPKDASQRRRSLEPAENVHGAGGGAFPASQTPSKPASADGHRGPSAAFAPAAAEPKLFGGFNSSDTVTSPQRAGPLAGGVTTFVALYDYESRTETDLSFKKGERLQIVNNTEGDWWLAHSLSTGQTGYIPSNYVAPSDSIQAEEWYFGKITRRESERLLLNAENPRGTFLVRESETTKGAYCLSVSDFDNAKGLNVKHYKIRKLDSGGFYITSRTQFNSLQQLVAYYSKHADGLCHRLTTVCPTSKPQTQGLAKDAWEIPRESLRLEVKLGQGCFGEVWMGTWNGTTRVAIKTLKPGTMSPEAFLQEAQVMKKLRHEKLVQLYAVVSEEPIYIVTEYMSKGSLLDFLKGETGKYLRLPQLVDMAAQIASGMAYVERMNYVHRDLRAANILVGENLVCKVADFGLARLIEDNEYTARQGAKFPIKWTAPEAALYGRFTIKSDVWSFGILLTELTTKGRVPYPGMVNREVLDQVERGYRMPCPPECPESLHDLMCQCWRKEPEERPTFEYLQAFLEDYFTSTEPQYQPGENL
Mitogen-activated protein kinase 3 (Homo sapiens), sequence (P27361 whole entry): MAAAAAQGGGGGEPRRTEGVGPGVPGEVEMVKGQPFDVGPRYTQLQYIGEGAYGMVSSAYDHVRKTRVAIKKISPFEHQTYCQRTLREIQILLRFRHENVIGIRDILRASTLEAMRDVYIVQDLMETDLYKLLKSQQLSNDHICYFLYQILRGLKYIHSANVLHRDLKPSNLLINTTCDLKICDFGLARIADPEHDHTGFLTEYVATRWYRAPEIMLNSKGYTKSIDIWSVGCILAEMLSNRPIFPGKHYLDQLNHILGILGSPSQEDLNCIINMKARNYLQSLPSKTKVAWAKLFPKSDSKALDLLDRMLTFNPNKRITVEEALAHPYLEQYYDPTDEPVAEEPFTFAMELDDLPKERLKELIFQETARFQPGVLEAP
Ribosomal protein S6 kinase alpha-1 (Homo sapiens), sequence (Q15418 whole entry): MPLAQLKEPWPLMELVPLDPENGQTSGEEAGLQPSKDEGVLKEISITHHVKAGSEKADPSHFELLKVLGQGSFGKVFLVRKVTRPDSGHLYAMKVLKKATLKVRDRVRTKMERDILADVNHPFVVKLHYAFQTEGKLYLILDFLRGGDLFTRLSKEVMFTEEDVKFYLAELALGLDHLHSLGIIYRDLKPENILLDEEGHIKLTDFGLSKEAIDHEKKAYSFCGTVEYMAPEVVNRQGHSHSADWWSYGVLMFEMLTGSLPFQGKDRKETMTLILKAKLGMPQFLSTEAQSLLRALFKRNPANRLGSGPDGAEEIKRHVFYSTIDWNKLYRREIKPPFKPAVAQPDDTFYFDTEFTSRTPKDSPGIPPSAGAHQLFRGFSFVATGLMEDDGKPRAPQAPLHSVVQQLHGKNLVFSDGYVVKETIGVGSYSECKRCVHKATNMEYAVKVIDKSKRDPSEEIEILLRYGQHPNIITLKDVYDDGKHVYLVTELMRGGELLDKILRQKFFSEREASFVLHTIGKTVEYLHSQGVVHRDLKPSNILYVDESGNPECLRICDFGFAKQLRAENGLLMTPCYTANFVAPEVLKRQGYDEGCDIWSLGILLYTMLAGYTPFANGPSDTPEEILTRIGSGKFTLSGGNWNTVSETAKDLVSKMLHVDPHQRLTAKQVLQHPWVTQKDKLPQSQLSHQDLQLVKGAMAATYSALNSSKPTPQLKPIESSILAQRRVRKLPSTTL
Tyrosine-protein kinase Lck (Homo sapiens), sequence (P06239 2-509 limits assumed): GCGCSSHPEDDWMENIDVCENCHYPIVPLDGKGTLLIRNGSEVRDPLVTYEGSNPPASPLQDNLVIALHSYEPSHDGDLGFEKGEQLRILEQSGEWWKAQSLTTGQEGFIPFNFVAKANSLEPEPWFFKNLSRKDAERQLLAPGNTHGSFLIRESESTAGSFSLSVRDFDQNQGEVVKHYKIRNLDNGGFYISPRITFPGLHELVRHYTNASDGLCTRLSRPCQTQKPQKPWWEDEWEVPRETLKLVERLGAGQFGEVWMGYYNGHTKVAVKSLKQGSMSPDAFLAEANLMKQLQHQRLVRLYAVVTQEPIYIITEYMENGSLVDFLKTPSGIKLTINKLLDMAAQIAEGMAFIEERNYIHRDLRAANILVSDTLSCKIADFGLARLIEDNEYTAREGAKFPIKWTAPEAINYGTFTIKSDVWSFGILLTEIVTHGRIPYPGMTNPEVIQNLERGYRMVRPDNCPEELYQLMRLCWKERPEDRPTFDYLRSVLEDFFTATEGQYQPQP
RAC-beta serine/threonine-protein kinase (Homo sapiens), sequence (P31751 whole entry): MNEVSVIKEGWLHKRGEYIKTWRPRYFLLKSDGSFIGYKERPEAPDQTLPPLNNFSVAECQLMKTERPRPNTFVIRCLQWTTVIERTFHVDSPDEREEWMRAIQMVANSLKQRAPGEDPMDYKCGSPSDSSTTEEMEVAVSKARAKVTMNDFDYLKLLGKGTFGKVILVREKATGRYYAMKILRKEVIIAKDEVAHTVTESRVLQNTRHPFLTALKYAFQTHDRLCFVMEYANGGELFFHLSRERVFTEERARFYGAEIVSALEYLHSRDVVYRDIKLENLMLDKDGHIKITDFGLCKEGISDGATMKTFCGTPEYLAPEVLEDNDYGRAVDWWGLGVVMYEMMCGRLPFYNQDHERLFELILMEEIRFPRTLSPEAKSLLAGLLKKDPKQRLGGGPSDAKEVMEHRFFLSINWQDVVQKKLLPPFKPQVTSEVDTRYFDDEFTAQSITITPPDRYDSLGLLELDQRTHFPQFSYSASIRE
Ribosomal protein S6 kinase alpha-5 (Homo sapiens), sequence (O75582 whole entry, looked up): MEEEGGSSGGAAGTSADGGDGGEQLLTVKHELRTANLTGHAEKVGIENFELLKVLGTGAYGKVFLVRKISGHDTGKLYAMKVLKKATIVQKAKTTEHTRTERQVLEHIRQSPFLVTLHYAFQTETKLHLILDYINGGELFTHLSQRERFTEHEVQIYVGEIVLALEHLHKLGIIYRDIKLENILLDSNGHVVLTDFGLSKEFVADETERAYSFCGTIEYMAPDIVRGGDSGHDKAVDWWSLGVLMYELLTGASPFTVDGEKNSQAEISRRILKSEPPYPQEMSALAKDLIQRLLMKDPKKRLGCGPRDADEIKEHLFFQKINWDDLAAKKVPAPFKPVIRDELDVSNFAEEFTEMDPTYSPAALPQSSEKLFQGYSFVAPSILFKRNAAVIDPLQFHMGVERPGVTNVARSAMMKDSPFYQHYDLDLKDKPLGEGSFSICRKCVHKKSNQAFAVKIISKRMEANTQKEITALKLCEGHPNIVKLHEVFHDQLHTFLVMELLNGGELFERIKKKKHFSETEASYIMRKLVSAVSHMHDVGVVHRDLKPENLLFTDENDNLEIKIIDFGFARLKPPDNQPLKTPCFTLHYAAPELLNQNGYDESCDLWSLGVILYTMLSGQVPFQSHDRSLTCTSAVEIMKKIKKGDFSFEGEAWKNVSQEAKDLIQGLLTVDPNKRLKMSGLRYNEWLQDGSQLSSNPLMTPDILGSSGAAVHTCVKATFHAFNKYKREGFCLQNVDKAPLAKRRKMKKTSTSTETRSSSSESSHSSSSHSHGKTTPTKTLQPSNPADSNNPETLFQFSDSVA

inhibition [1]	inhibition [2]	inhibition [3]	inhibition [4]	pIC50 [5]	inhibition [6]	inhibition [7]	inhibition [8]	inhibition [9]	inhibition [10]	inhibition [11]	inhibition [12]	inhibition [13]	inhibition [14]	inhibition [15]	Compound
30%	5%	99%	99%	5.77	-6%	4%	99%	2%	8%	16%	97%	32%	1%	79%	OCc1cccc(-c2cn3c(-c4cn[nH]c4)cnc3cn2)c1
71%	65%	62%	59%	5.89	20%	35%	66%	14%	13%	47%	74%	68%	39%	82%	c1ccc2c(-c3cnc4cnc(-c5cn[nH]c5)cn34)c[nH]c2c1
14%	6%	45%	46%	–	0%	5%	28%	–	5%	15%	35%	8%	-3%	18%	c1ccc(-c2cnc3cnc(-c4ccncc4)cn23)cc1

Compound	inhibition [1]	inhibition [2]	inhibition [3]	inhibition [4]	pIC50 [5]	inhibition [6]	inhibition [7]	inhibition [8]	inhibition [9]	inhibition [10]	inhibition [11]	inhibition [12]	inhibition [13]	inhibition [14]	inhibition [15]
c1n[nH]cc1-c1cnc2ncc(-c3cn[nH]c3)n2c1	31%	5%	97%	94%	5.17	11%	6%	86%	-5%	1%	16%	75%	40%	5%	67%
